Drawing on the supplement of paper PMC10307832, this text covers relative viability for one cell line.

Compound in assay [1]: CN(C)C(=N)NC(=N)N [Metformin] + CC(C)C[C@H](NC(=O)[C@H](Cc1ccccc1)NC(=O)c1cnccn1)B(O)O [Bortezomib] (partner 0.002 µM)
The experiment in a line: relative viability (nuclei count vs DMSO), 5 days (fraction); higher = more cells survive. The essentials:
(§1)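 Values are medians from duplicate plates. Each reflects relative viability, defined as the nuclei count of treated wells over that of vehicle wells. Lung cancer cell lines in 1536-well plates were pin-tool dosed one day after seeding with one drug alone or with a fixed anchor-drug dose plus five library-drug doses (not always all listed) in √10 steps, then fixed, stained and imaged at 4× after 5 days.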

Compound in assay [2]: CN(C)C(=N)NC(=N)N [Metformin] + COc1cccc2cc(-c3nc([C@H]4CC[C@H](C(=O)O)CC4)n4ncnc(N)c34)[nH]c12 [OSI-027] (partner 0.5 µM)
The assay is described as above. The essentials: as §1

As for NCI-H460, the relative viability in assay [1] (first compound 31.62 µM) is 1.12; in assay [1] (first compound 100 µM), 1.11; in assay [1] (first compound 316.23 µM), 1.06; in assay [1] (first compound 1000 µM), 1.19; in assay [2] (first compound 10 µM) it was 0.685; in assay [2] (first compound 31.62 µM), 0.664. Besides, the relative viability in assay [2] (first compound 100 µM) was found to be 0.547; in assay [2] (first compound 316.23 µM), 0.49; in assay [2] (first compound 1000 µM), 0.762.
